Source: patent US9452185B2, “Mesenchymal stem cells and supports for tissue regeneration, repair and reconstruction” (THE TEXAS A&M UNIVERSITY SYSTEM, priority 2009, dated 2016)
Entries after “also recorded” stand apart in the source; their conditions may differ.

Columns and labels:
Format in all cases: cell-based, human
hMSCs = assay: Alkaline phosphatase (ALP) activity of hMSCs in osteogenic media
Method: For non-mineralizing osteogenic differentiation, hMSCs were plated in 12-well plates at 100 cells cm^−2. Upon reaching about 70% confluency, the media was changed to osteogenic base media (OBM) containing 50 μg mL^−1 ascorbic acid and 5 mM β-glycerol phosphate and either GW9662 or DMSO. Media was changed every 2 days for 8-10 days following measurement of ALP activity. For this purpose, the monolayer was washed with PBS and then with ALP reaction buffer (100 mM Tris-HCl, pH 9, containing 100 mM KCl and 1 mM MgCl2). One half mL of ALP buffer then 0.5 mL p-nitrophenol phosphate (PNPP) was rapidly added to the wells. ALP activity was measured as the rate of PNPP conversion to p-nitrophenolate by monitoring the absorbance at 405 nm every 30 seconds for 9 minutes using a plate reader. The rates were normalized against cell number and statistically analyzed using one-way analysis of variance (ANOVA) and Tukey post test for multiple comparisons or by Student's t-test, for single, unrelated comparisons.
Early osteogenic differentiation and alkaline phosphatase assays. MSCs were plated in 6-well plates at an initial plating density of 100 cells per cm^2 and cultured in standard complete media for 6 days until semi-confluence (approximately 5,000 cells per cm^2). Osteogenic base media consisting of complete media containing 5 mM β-GP and 50 μg mL^−1 ascorbate-2-phosphate and the appropriate inhibitor or vehicle was then used to induce early osteogenic differentiation. Assays were allowed to proceed for 8-10 days with changes of media every 2 days. ALP assays were performed as previously described (Gunn et al., 2006, Stem Cells 24:986-991).
(§1) In order to characterize the influence of 7AIPM on osteogenic differentiation, hMSC's from two donors were cultured as described elsewhere herein with the addition of varying concentrations of the compound or vehicle to the media. Samples of the media were collected daily for analysis. These samples were analyzed for the presence of OPG and Dkk-1 using ELISA. Alkaline phosphatase activity of the monolayers and cell numbers were measured using a spectrophotometer.

osteoprotegerin (OPG) = assay: OPG secretion by ELISA; details: 7AIPM in osteogenic culture
Method: as §1, with “ELISAs. ELISA for CXCL6, Dkk-1, GROa, GRO13, and OPG were carried out by using nonbiotinylated polyclonal capture antibodies and biotinylated detection antibodies that were commercially acquired on coated 96-well plates The biotinylated […] antibodies were detected by using horseradish peroxidase-conjugated streptavidin and TMB substrate. ELISA for IL-lb were performed by using commercially acquired kits. In” for “In”

Dkk-1 = Dkk-1 secretion by ELISA; details: 7AIPM in osteogenic culture
Method: as §1, with “ELISAs. ELISA for CXCL6, Dkk-1, GROa, GRO13, and OPG were carried out by using nonbiotinylated polyclonal capture antibodies and biotinylated detection antibodies that were commercially acquired on coated 96-well plates The biotinylated […] antibodies were detected by using horseradish peroxidase-conjugated streptavidin and TMB substrate. ELISA for IL-lb were performed by using commercially acquired kits. In” for “In”

Substance	ALP activity (hMSCs; MSC monolayers, osteogenic medium with increasing doses, four days)	OPG concentration (osteoprotegerin (OPG))	Dkk-1 concentration (Dkk-1)	ALP activity (hMSCs; osteogenic media without dexamethasone, 8 days)
7-azaindolyl-pyrazinylmaleimide [7AIPM]	increased; also recorded: biphasic dose dependant effect	increased	decrease	
Dldc-1: Wnt inhibitor added to block canonical Wnt signaling				attenuated
